The numbers were not newly measured in US12728131B2, “Compositions for the treatment of glaucoma and ocular hypertension” (Nicox S.A., priority 2020, dated 2026), which cites them from elsewhere.

Where two headings read alike, the source gives them in different places.

For this data set the following is noted: phase 2 dose-ranging VOYAGER study.

For `CC(C)OC(=O)CCC/C=C\C[C@@H]1[C@@H](CC[C@@H](O)CCc2ccccc2)[C@H](O)C[C@@H]1O` [latanoprost, propan-2-yl (Z)-7-[(1R,2R,3R,5S)-3,5-dihydroxy-2-[(3R)-3-hydroxy-5-phenylpentyl]cyclopentyl]hept-5-enoate], the “reduction in mean diurnal IOP” value (0.005%) was 7.77 mmHg.

For the compound `O=C(CCC/C=C\C[C@@H]1[C@@H](CC[C@@H](O)CCc2ccccc2)[C@H](O)C[C@@H]1O)OCCCCO[N+](=O)[O-]` [latanoprostene bunod], the “reduction in mean diurnal IOP” value (0.024%) is listed as 9.0 mmHg.
